Results on 28 compounds are retold here after patent US9233977B2, “Leucine-rich repeat kinase enzyme activity” (Merck Sharp & Dohme Corp., priority 2010, dated 2016).

The target in this assay is T1, LRRK2 G2019S mutant kinase (Homo sapiens, UniProt Q5S007, G2019S).
T1 construct: GST; purchased Invitrogen PV4882
T1 sequence (Q5S007 whole entry G2019S): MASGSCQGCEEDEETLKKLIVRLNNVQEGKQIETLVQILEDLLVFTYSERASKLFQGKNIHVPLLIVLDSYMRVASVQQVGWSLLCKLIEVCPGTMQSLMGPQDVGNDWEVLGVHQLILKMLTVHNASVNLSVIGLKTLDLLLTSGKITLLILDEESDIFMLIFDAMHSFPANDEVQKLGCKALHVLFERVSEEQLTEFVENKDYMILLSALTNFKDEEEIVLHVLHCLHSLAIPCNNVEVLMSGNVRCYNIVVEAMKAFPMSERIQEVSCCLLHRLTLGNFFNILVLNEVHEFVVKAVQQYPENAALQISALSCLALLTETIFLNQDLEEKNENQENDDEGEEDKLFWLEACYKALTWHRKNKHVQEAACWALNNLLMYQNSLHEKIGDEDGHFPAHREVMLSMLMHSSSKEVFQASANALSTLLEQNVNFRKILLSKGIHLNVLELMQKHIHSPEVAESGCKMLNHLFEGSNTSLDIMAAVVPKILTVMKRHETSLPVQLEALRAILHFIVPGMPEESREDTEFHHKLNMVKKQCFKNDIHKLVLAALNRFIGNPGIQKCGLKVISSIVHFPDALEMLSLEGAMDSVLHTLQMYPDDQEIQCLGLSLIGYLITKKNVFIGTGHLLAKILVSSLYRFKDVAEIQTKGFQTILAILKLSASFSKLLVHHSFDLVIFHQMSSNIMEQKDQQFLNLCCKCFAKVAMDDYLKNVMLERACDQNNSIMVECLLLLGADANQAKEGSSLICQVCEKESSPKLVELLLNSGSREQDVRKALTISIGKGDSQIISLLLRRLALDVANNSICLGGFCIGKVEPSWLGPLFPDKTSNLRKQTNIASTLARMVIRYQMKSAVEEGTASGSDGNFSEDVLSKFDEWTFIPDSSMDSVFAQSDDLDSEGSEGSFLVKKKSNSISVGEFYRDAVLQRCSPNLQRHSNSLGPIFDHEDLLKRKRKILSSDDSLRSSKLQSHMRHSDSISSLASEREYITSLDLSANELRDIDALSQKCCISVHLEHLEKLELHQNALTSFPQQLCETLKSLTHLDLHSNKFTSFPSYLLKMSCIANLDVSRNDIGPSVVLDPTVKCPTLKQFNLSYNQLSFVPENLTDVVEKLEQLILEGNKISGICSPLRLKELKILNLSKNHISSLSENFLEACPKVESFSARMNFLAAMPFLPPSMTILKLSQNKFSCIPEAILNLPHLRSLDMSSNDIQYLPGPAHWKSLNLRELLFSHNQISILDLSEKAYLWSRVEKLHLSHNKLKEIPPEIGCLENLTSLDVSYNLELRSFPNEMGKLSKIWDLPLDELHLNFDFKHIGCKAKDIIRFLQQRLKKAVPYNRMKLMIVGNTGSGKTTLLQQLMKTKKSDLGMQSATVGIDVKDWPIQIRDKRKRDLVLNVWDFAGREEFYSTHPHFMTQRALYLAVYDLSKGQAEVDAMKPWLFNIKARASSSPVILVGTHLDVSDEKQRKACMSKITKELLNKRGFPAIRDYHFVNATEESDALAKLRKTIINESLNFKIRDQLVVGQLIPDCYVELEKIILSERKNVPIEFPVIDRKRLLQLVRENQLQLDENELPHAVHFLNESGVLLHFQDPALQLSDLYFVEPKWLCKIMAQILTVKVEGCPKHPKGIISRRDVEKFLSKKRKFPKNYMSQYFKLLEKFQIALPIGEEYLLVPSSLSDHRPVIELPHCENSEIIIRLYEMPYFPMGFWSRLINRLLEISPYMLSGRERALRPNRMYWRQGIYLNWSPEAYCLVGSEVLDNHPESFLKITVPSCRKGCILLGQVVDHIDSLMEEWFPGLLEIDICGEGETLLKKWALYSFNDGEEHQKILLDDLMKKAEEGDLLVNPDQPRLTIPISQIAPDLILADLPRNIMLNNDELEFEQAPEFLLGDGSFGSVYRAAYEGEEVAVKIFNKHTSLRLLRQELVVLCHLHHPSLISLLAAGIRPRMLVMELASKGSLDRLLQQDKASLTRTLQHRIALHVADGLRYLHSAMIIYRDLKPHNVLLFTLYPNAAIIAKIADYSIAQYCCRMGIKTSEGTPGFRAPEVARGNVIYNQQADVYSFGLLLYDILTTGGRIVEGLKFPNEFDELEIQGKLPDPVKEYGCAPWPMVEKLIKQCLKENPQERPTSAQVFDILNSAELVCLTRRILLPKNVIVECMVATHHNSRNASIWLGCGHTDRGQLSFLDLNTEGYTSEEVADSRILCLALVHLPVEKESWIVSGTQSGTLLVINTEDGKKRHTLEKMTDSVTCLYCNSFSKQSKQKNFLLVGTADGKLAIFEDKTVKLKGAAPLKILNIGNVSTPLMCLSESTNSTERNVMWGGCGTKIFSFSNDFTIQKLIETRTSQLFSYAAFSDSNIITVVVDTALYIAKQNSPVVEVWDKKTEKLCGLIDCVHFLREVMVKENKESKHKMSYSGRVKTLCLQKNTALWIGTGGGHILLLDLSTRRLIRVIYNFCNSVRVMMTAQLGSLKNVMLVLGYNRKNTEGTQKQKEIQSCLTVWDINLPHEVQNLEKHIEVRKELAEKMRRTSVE
Put plainly: LRRK2 G2019S LanthaScreen TR-FRET kinase assay. Format: biochemical. To be noted: LRRK2 G2019S GST-tagged protein, 75 nM Fluorescein-ERM (LRRKtide), 100 μM ATP, 1 hour at room temperature; read-out: IC50 (potency). On the procedure: The final solvent concentration in the assay was 1% DMSO. […] Generation of raw data and workup of data to derive the IC50 (potency) and maximal inhibition at concentrations tested were performed using Merck's Assay Data Analyzer (ADA) software.
The IC50 (potency) was evaluated for the example compounds presented above.
On the technique in general: TR-FRET usually uses a lanthanide donor and a delayed reading to cut background.
The IC50 is the concentration that inhibits the measured activity by half. For `COc1cccc(N2CCc3c(-c4cc[nH]n4)sc(SC)c3C2=O)c1` [Example 84, 5-(3-methoxyphenyl)-3-(methylsulfanyl)-1-(1H-pyrazol-3-yl)-6,7-dihydrothieno[3,4-c]pyridin-4(5)-one], the IC50 is 4700 nM.
For `CSc1sc(-c2cc[nH]n2)c2c1C(=O)NCC2` [Example 1, 3-(Methylsulfanyl)-1-(1H-pyrazol-3-yl)-6,7-dihydrothieno[3,4-c]pyridin-4(5H)-one], the half-inhibitory concentration (IC50) stood at 460 nM.
Then `CCCCNCCSc1sc(-c2cc[nH]n2)c2c1C(=O)NCC2` [Example 37, 3-{[2-(butylamino)ethyl]sulfanyl}-1-(1H-pyrazol-3-yl)-6,7-dihydrothieno[3,4-c]pyridin-4(5)one], with 5200 nM; and `NCCSc1sc(-c2cc[nH]n2)c2c1C(=O)NCC2` [Example 40], with 4700 nM.
For the compound `CSc1sc(-c2cc[nH]n2)c2c1C(=O)NC1(CCC1)C2` [Example 5, 3′-(methylsulfanyl)-4′-oxo-1′-(1H-pyrazol-3-yl)-7′H-spiro[cyclobutane-1,6′-thieno[3,4-1]pyridine]-4′(5′H)-one], the IC50 stood at 160 nM.
Regarding `C[C@H]1Cc2c(-c3cc[nH]n3)sc(NC3CCCC3)c2C(=O)N1` [Example 97, (6S)-3-(cyclopentylamino)-6-methyl-1-(1H-pyrazol-3-yl)-6,7-dihydrothieno[3,4-c]pyridin-4(5H)-one], the IC50 came to 320 nM.
Consider `O=C1NCCc2c(-c3cc[nH]n3)sc(SCCCO)c21` [Example 38], for which the IC50 came out at 640 nM.
For `O=C1NC(Cc2ccccc2)Cc2c(-c3cc[nH]n3)sc(SC3CCCC3)c21` (stereo not shown) [Example 33, 6-benzyl-3-(cyclopentylsulfanyl)-1-(1H-pyrazol-3-yl)-6,7-dihydrothieno[3,4-c]pyridin-4(5)-one], the concentration for half-maximal inhibition (IC50) was 530 nM.
For `CSc1sc(-c2cc[nH]n2)c2c1C(=O)N(Cc1ccccc1)CC2` [Example 77, 5-benzyl-3-(methylsulfanyl)-1-(1H-pyrazol-3-yl)-6,7-dihydrothieno[3,4-c]pyridin-4(5)-one], the IC50 came out at 1300 nM.
Then `CSc1sc(-c2cc[nH]n2)c2c1C(=O)N(CCCC#N)CC2` [Example 59, 4-[3-(methylsulfanyl)-4-oxo-1-(1H-pyrazol-3-yl)-6,7-dihydrothieno[3,4-]pyridin-5(4H)-yl]butanenitrile], with 3700 nM; and `CSc1sc(-c2cc[nH]n2)c2c1C(=O)N[C@H](c1cccc(F)c1)C2` [Example 17, (6S)-3-(methylsulfanyl)-6-(3-fluorophenyl)-1-(1H-pyrazol-3-yl)-6,7-dihydrothieno[3,4-c]pyridin-4(5)-one], with 78 nM.
`CSc1sc(-c2cc[nH]n2)c2c1C(=O)N(c1ccccc1F)CC2` [Example 85, 5-(2-fluorophenyl)-3-(methylsulfanyl)-1-(1H-pyrazol-3-yl)-6,7-dihydrothieno[3,4-c]pyridin-4(5)-one]: the IC50 is 3100 nM.
As for `O=C1NCCc2c(-c3cc[nH]n3)sc(SCC3CC3)c21` [Example 26, 3-[(cyclopropylmethyl)sulfanyl]-1-(1H-pyrazol-3-yl)-6,7-dihydrothieno[3,4-c]pyridin-4(5)-one], the IC50 came out at 300 nM.
Turning to `CSc1sc(-c2cc[nH]n2)c2c1C(=O)N(CC1CCOCC1)CC2` [Example 66, 5-[(4-tetrahydropyranyl)methyl]-3-(methylsulfanyl)-1-(1H-pyrazol-3-yl)-6,7-dihydrothieno[3,4-c]pyridin-4(5)-one], the IC50 stood at 3700 nM.
As for `O=C1NC(C(F)(F)F)Cc2c(-c3cc[nH]n3)sc(SC3CCCC3)c21` (stereo not shown) [Example 35, 6-trifluoromethyl-3-(cyclopentylsulfanyl)-1-(1H-pyrazol-3-yl)-6,7-dihydrothieno[3,4-c]pyridin-4(5)-one], the IC50 was 160 nM.
Regarding `CSc1sc(-c2cc[nH]n2)c2c1C(=O)N[C@H](c1cc(F)cc(F)c1)C2` [Example 16, (6S)-3-(methylsulfanyl)-6-(3,5-difluorophenyl)-1-(1H-pyrazol-3-yl)-6,7-dihydrothieno[3,4-c]pyridin-4(5)-one], the IC50 was found to be 240 nM.
For `CNc1sc(-c2cc[nH]n2)c2c1C(=O)NC(Cc1ccccc1)C2` (stereo not shown) [Example 93, 3-(methylamino)-6-benzyl-1-(1H-pyrazol-3-yl)-6,7-dihydrothieno[3,4-c]pyridin-4(5H)-one], the IC50 came to 330 nM.
As to `CSc1sc(-c2cc[nH]n2)c2c1C(=O)N(C(=O)OC(C)(C)C)C1(CCC1)C2` [Example 6, tert-butyl-6-methyl-3′-(methylsulfanyl)-4′-oxo-1′-(1H-pyrazol-3-yl)-7′H-spiro[cyclobutane-1,6′-thieno[3,4-1]pyridine]-5′(4′H)-carboxylate], the IC50 is 3100 nM.
Consider `C[C@@H]1Cc2c(-c3cc[nH]n3)sc(SC3(C(=O)O)CCCC3)c2C(=O)N1` [Example 50, 1-{[(6R)-6-methyl-4-oxo-1-(1H-pyrazol-3-yl)-4,5,6,7-tetrahydrothieno[3,4-c]pyridin-3-yl]sulfanyl}cyclopentanecarboxylic acid], for which the IC50 was 3400 nM.
For the compound `O=C1NC(Cc2ccccc2)Cc2c(-c3cc[nH]n3)sc(NC3CCCC3)c21` (stereo not shown) [Example 92, 3-(cyclopentylamino)-6-benzyl-1-(1H-pyrazol-3-yl)-6,7-dihydrothieno[3,4-c]pyridin-4(5H)-one], the IC50 is 290 nM.
The result for `O=C1NCCc2c(-c3cc[nH]n3)sc(SC3CCCC3)c21` [Example 30, 3-(Cyclopentylsulfanyl)-1-(1H-pyrazol-3-yl)-6,7-dihydrothieno[3,4-c]pyridin-4(5H)-one] reads 290 nM; that for `CCC(C)CSc1sc(-c2cc[nH]n2)c2c1C(=O)N[C@@H](C)C2` (stereo partly shown) [Example 48], 55 nM; that for `O=C(O)CSc1sc(-c2cc[nH]n2)c2c1C(=O)NCC2` [Example 46, 1-{[4-oxo-1-(1H-pyrazol-3-yl)-4,5,6,7-tetrahydrothieno[3,4-c]pyridin-3-yl]sulfanyl}acetic acid], 3100 nM.
In the case of `CSc1sc(-c2cc[nH]n2)c2c1C(=O)NC(CC(C)C)C2` (stereo not shown) [Example 12, 6-(2-methylpropyl)-3-(methylsulfanyl)-1-(1H-pyrazol-3-yl)-6,7-dihydrothieno[3,4-c]pyridin-4(5)-one], the IC50 was determined as 300 nM.
With `CSc1sc(-c2cc[nH]n2)c2c1C(=O)NC(C1CC1)C2` (stereo not shown) [Example 13, 6-cyclopropyl-3-(methylsulfanyl)-1-(1H-pyrazol-3-yl)-6,7-dihydrothieno[3,4-c]pyridin-4(5)-one], the IC50 is 450 nM.
As for `CC1Cc2c(-c3cc[nH]n3)sc(NC3CCCC3)c2C(=O)N1` (stereo not shown) [Example 87, 3-(cyclopentylamino)-6-methyl-1-(1H-pyrazol-3-yl)-6,7-dihydrothieno[3,4-c]pyridin-4(5H)-one], the IC50 turned out to be 320 nM.
For `CSc1sc(-c2cc[nH]n2)c2c1C(=O)N(CCCCO)CC2` [Example 60, 5-(4-hydroxybutyl)-3-(methylsulfanyl)-1-(1H-pyrazol-3-yl)-6,7-dihydrothieno[3,4-c]pyridin-4(5)-one], the IC50 came to 1700 nM.
As to `CC(C)CC1Cc2c(-c3cc[nH]n3)sc(SC3CCCC3)c2C(=O)N1` (stereo not shown) [Example 34, 6-(2-methylpropyl)-3-(cyclopentylsulfanyl)-1-(1H-pyrazol-3-yl)-6,7-dihydrothieno[3,4-c]pyridin-4(5)-one], the IC50 was determined as 110 nM.
